In ChEMBL document CHEMBL1149218, “Predicting pharmacophore signals for post-coital antifertility activity of 1-trifluoromethyl-1,2,2-triphenylethylene derivatives: a statistical approximation using E-state index” (2004):

Tested on: Rattus norvegicus
Assay: Effective oral dose of compound for Post-coital antifertility activity was determined in rats
Type: functional
Design: unit not given here

In the case of COc1ccc(C(=C(c2ccccc2)C(F)(F)F)c2ccc(OC)cc2)cc1, the pED50 is reported as 2.079.

FC(F)(F)C(=C(c1ccccc1)c1ccccc1)c1ccc(Cl)cc1 gave a pED50 of 1.477.

FC(F)(F)C(=C(c1ccccc1)c1ccccc1)c1cccs1 showed a pED50 of 2.914.

Work on COc1ccc(/C(=C(\c2ccccc2)C(F)(F)F)c2ccccc2)cc1 yielded a pED50 of 1.602.

In the case of COc1ccc(/C(=C(/c2ccc(F)cc2)C(F)(F)F)c2ccccc2)cc1, the pED50 is reported as 1.301.

In the case of Cc1ccc(C(=C(c2ccccc2)c2ccccc2)C(F)(F)F)cc1, the pED50 is reported as 2.681.

Fc1ccccc1C(=C(c1ccccc1)c1ccccc1)C(F)(F)F gave a pED50 of 1.204.

FC(F)(F)C(F)(F)C(=C(c1ccccc1)c1ccccc1)c1ccccc1 gave a pED50 of 2.301.

In the case of COc1ccc(C(=C(c2ccccc2)c2ccccc2)C(F)(F)F)cc1, the pED50 is reported as 2.079.

COc1ccc(/C(=C(/c2ccccc2)C(F)(F)F)c2ccccc2)cc1 was tested, and the pED50 was 1.114.

In the case of FC(F)(F)C(=C(c1ccccc1)c1ccccc1)c1cccc(C(F)(F)F)c1, the pED50 is reported as 1.477.

Work on Fc1ccc(/C(=C(/c2ccccc2)C(F)(F)F)c2ccccc2)cc1 yielded a pED50 of 2.491.

In the case of FC(F)(F)C(=C(c1ccccc1)c1ccccc1)c1ccc(C(F)(C(F)(F)F)C(F)(F)F)cc1, the pED50 is reported as 1.204.

With Fc1ccc(C(=C(c2ccccc2)c2ccccc2)C(F)(F)F)cc1 the pED50 was 1.602.

Compound Fc1cccc(C(=C(c2ccccc2)c2ccccc2)C(F)(F)F)c1 has a pED50 of 1.204.

With FC(F)(F)C(c1ccccc1)C(c1ccccc1)c1ccccc1 (stereo not drawn) the pED50 was 2.991.

FC(F)(F)C(=C(c1ccccc1)c1ccccc1)c1ccccc1 showed a pED50 of 2.079.

For FC(F)(F)C(=C(c1ccccc1)c1ccccc1)c1ccc(C(F)(F)F)cc1, the pED50 was 1.477.
